Source: ChEMBL document CHEMBL4622844, “Inhibition of bacterial growth and galactosyltransferase activity of WbwC by α, ω-bis(3-alkyl-1H-imidazolium)alkane salts: Effect of varying carbon content” (Bioorg Med Chem, 2020)
Blank lines part the entries; values can stand above or below the molecule they belong to. Active and inactive are the calls of the source. The calls are words filed in the database; no cut-off is given here.

Experiments:
[1] = Inhibition of recombinant Escherichia coli O104:H4 Beta-1,3-galactosyltransferase WbwC expressed in Escherichia coli BL21 in presence of UDP-[3H]Gal and GalNAC-PO3-PO3-(CH2)11-O-phenyl after 1 hr by scintillation counting method
Escherichia coli [2] = test: Inhibition of recombinant Escherichia coli O104:H4 Beta-1,3-galactosyltransferase WbwC expressed in Escherichia coli BL21 at 0.5 mM in presence of UDP-[3H]Gal and GalNAC-PO3-PO3-(CH2)11-O-phenyl after 1 hr by scintillation counting method relative to control
Pseudomonas aeruginosa [3] = test: Antimicrobial activity against Pseudomonas aeruginosa PAO1 assessed as inhibition of colony formation at 50 uM preincubated for 4 hrs and measured after overnight incubation by CFU assay; assay type: functional
[4] = biological target: T1, Beta-1,4-galactosyltransferase 1 (Bos taurus) (UniProt P08037); test: Inhibition of bovine milk Beta-1,4-galactosyltransferase at 0.5 mM in presence of UDP-[3H]Gal and GlcNAc-beta-Bn after 1 hr by scintillation counting method
T1 sequence (whole entry): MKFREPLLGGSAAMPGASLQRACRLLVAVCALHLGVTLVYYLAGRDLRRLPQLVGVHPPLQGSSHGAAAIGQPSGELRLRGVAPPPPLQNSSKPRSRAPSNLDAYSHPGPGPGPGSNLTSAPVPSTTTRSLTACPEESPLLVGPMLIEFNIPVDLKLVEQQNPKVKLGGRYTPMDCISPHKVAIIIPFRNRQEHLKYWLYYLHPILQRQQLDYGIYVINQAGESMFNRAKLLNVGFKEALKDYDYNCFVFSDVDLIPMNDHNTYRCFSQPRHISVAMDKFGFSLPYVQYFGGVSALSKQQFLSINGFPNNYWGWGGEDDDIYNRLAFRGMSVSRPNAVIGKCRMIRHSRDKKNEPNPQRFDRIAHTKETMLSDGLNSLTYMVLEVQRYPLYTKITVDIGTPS

[5] = system: Staphylococcus epidermidis; test: Antimicrobial activity against Staphylococcus epidermidis assessed as inhibition of colony formation at 10 uM preincubated for 4 hrs and measured after overnight incubation by CFU assay; assay type: functional
Pseudomonas aeruginosa [6] = test: Antimicrobial activity against Pseudomonas aeruginosa PAO1 assessed as inhibition of colony formation at 10 uM preincubated for 4 hrs and measured after overnight incubation by CFU assay; assay type: functional
Pseudomonas aeruginosa [7] = test: Antimicrobial activity against Pseudomonas aeruginosa PAO1 assessed as inhibition of colony formation at 5 uM preincubated for 4 hrs and measured after overnight incubation by CFU assay; assay type: functional
Bacillus subtilis [8] = test: Antimicrobial activity against Bacillus subtilis assessed as inhibition of colony formation at 5 uM preincubated for 4 hrs and measured after overnight incubation by CFU assay; assay type: functional
[9] = system: Staphylococcus epidermidis; test: Antimicrobial activity against Staphylococcus epidermidis assessed as inhibition of colony formation at 5 uM preincubated for 4 hrs and measured after overnight incubation by CFU assay; assay type: functional
Bacillus subtilis [10] = test: Antimicrobial activity against Bacillus subtilis assessed as inhibition of colony formation at 10 uM preincubated for 4 hrs and measured after overnight incubation by CFU assay; assay type: functional
Escherichia coli [11] = test: Antimicrobial activity against Escherichia coli BL21 assessed as inhibition of colony formation at 10 uM preincubated for 4 hrs and measured after overnight incubation by CFU assay; assay type: functional
Escherichia coli [12] = test: Antimicrobial activity against Escherichia coli BL21 assessed as inhibition of colony formation at 25 uM preincubated for 4 hrs and measured after overnight incubation by CFU assay; assay type: functional
Pseudomonas aeruginosa [13] = test: Antimicrobial activity against Pseudomonas aeruginosa PAO1 assessed as inhibition of colony formation at 25 uM preincubated for 4 hrs and measured after overnight incubation by CFU assay; assay type: functional
Bacillus subtilis [14] = test: Antimicrobial activity against Bacillus subtilis assessed as inhibition of colony formation at 25 uM preincubated for 4 hrs and measured after overnight incubation by CFU assay; assay type: functional
[15] = system: Staphylococcus epidermidis; test: Antimicrobial activity against Staphylococcus epidermidis assessed as inhibition of colony formation at 25 uM preincubated for 4 hrs and measured after overnight incubation by CFU assay; assay type: functional
Escherichia coli [16] = test: Antimicrobial activity against Escherichia coli BL21 assessed as inhibition of colony formation at 5 uM preincubated for 4 hrs and measured after overnight incubation by CFU assay; assay type: functional

Compound: C[n+]1ccn(CCCCn2cc[n+](C)c2)c1
inhibition at 50 µM (Pseudomonas aeruginosa [3]): 0%
inhibition (Escherichia coli [2]): 9%

Compound: CCCCCC[n+]1ccn(CCCCCCCCCCn2cc[n+](CCCCCC)c2)c1
inhibition (Escherichia coli [2]): < 1%

Compound: C[n+]1ccn(CCCCCCn2cc[n+](C)c2)c1
inhibition at 50 µM (Pseudomonas aeruginosa [3]): 0%
inhibition (Escherichia coli [2]): 7%

Compound: C[n+]1ccn(CCCCCCCCCCCCCCCn2cc[n+](C)c2)c1
inhibition (Escherichia coli [2]): 11%

Compound: CCCCCCC[n+]1ccn(CCCCCCn2cc[n+](CCCCCCC)c2)c1
inhibition (Escherichia coli [2]): 16%

Compound: C[n+]1ccn(CCCCCCCCCCCCCCCCCCCCCCn2cc[n+](C)c2)c1
inhibition at 50 µM (Pseudomonas aeruginosa [3]): 100%
inhibition at 25 µM (Pseudomonas aeruginosa [13]): > 95%
IC50 [1]: 159 µM
inhibition (Escherichia coli [2]): 91%

Compound: C[n+]1ccn(CCCCCCCCn2cc[n+](C)c2)c1
inhibition (Escherichia coli [2]): 21%

Compound: C[n+]1ccn(CCCCCCCCCCCCCCn2cc[n+](C)c2)c1
inhibition at 10 µM [5]: 0%
inhibition at 10 µM (Pseudomonas aeruginosa [6]): 4%
inhibition at 5 µM (Pseudomonas aeruginosa [7]): 0%
inhibition at 5 µM (Bacillus subtilis [8]): 8%
inhibition at 5 µM [9]: 0%
inhibition at 10 µM (Bacillus subtilis [10]): 20%
inhibition at 10 µM (Escherichia coli [11]): 32%
inhibition at 25 µM (Escherichia coli [12]): 51%
inhibition at 25 µM (Pseudomonas aeruginosa [13]): 22%
inhibition at 25 µM (Bacillus subtilis [14]): 51%
inhibition at 25 µM [15]: 0%
inhibition (Escherichia coli [2]): 10%
inhibition at 5 µM (Escherichia coli [16]): 0%

Compound: C[n+]1ccn(CCCCCCCCCCCCCCCCn2cc[n+](C)c2)c1
inhibition (Escherichia coli [2]): < 1%

Now from value to molecule, other results behind:

IC50 [1]: 18 µM
inhibition (Escherichia coli [2]): 93%
Compound: CCCCCCCC[n+]1ccn(CCCCCCCCCCCCCCCCn2cc[n+](CCCCCCCC)c2)c1

inhibition [4]: Active
IC50 [1]: 23 µM
inhibition (Escherichia coli [2]): 95%
Compound: CCCCCCCCC[n+]1ccn(CCCCCCCCCCn2cc[n+](CCCCCCCCC)c2)c1

inhibition [4]: Active
IC50 [1]: 59 µM
inhibition (Escherichia coli [2]): 91%
Compound: CCCCCCCCCCCC[n+]1ccn(CCCCCCCCCCn2cc[n+](CCCCCCCCCCCC)c2)c1
inhibition at 10 µM [5]: 100%
inhibition at 10 µM (Pseudomonas aeruginosa [6]): 100%
inhibition at 5 µM (Pseudomonas aeruginosa [7]): > 98%
inhibition at 5 µM (Bacillus subtilis [8]): 100%
inhibition at 5 µM [9]: 100%
inhibition at 10 µM (Bacillus subtilis [10]): 100%
inhibition at 10 µM (Escherichia coli [11]): 100%
inhibition at 25 µM (Escherichia coli [12]): 100%
inhibition at 25 µM (Pseudomonas aeruginosa [13]): < 98%
inhibition at 25 µM (Bacillus subtilis [14]): 100%
inhibition at 25 µM [15]: 100%
inhibition at 5 µM (Escherichia coli [16]): 100%

IC50 [1]: 123 µM
inhibition (Escherichia coli [2]): 92%
Compound: CCCCCCCCCCC[n+]1ccn(CCCCCCCCCCCCCCCCn2cc[n+](CCCCCCCCCCC)c2)c1
inhibition at 10 µM [5]: 100%
inhibition at 10 µM (Pseudomonas aeruginosa [6]): 77%
inhibition at 5 µM (Pseudomonas aeruginosa [7]): 28%
inhibition at 5 µM (Bacillus subtilis [8]): 100%
inhibition at 5 µM [9]: 100%
inhibition at 10 µM (Bacillus subtilis [10]): 100%
inhibition at 10 µM (Escherichia coli [11]): 100%
inhibition at 25 µM (Escherichia coli [12]): 100%
inhibition at 25 µM (Pseudomonas aeruginosa [13]): 100%
inhibition at 25 µM (Bacillus subtilis [14]): 100%
inhibition at 25 µM [15]: 100%
inhibition at 5 µM (Escherichia coli [16]): 100%

inhibition (Escherichia coli [2]): < 10%
Compound: CCCCCCCCC[n+]1ccn(CCCCCCn2cc[n+](CCCCCCCCC)c2)c1

IC50 [1]: 123 µM
inhibition (Escherichia coli [2]): 64%
Compound: CCCCCCCC[n+]1ccn(CCCCCCCCCCn2cc[n+](CCCCCCCC)c2)c1
inhibition at 10 µM [5]: 100%
inhibition at 10 µM (Pseudomonas aeruginosa [6]): 100%
inhibition at 5 µM (Pseudomonas aeruginosa [7]): 96%
inhibition at 5 µM (Bacillus subtilis [8]): 100%
inhibition at 5 µM [9]: 100%
inhibition at 10 µM (Bacillus subtilis [10]): 100%
inhibition at 10 µM (Escherichia coli [11]): 100%
inhibition at 25 µM (Escherichia coli [12]): 100%
inhibition at 25 µM (Pseudomonas aeruginosa [13]): 100%
inhibition at 25 µM (Bacillus subtilis [14]): 100%
inhibition at 25 µM [15]: 100%
inhibition at 5 µM (Escherichia coli [16]): 100%

IC50 [1]: 147 µM
inhibition (Escherichia coli [2]): 92%
Compound: CCCCCCCCCC[n+]1ccn(CCCCCCCCCCCCCCCCn2cc[n+](CCCCCCCCCC)c2)c1

inhibition [4]: Active
IC50 [1]: 43 µM
inhibition (Escherichia coli [2]): 90%
Compound: CCCCCCCCCCCC[n+]1ccn(CCCCCCn2cc[n+](CCCCCCCCCCCC)c2)c1
